Results taken from EP4722212A1, “NOVEL COMPOUND FOR INHIBITING PROTEIN KINASES AND PHARMACEUTICAL COMPOSITION COMPRISING SAME” (Magicbullettherapeutics Co., Ltd., priority 2023, dated 2024).
Where two headings read alike, the source gives them in different places.

Tests used:
Experiment in all cases: Kinase panel
Format in all cases: biochemical
ULK2 = ULK2 (Homo sapiens, UniProt Q8IYT8); details: ULK2, 1 µM; read-out: residual enzyme activity
How it was run: (§1)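 Kinase profiling used a full biochemical panel. Test compound concentration: 1 µM, single point. Output: calculated residual activity, with kinases at or under 40% reported.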

EPHB3 = EPHB3 (Homo sapiens, UniProt P54753); details: EPHB3, 1 µM; read-out: residual enzyme activity
How it was run: as §1

EPHA1 = EPHA1 (Homo sapiens, UniProt P21709); details: EPHA1, 1 µM; read-out: residual enzyme activity
How it was run: as §1

ZAK/MLTK = ZAK/MLTK (Homo sapiens, UniProt Q9NYL2); details: read-out: residual enzyme activity
Chain of ZAK/MLTK (Q9NYL2 whole entry): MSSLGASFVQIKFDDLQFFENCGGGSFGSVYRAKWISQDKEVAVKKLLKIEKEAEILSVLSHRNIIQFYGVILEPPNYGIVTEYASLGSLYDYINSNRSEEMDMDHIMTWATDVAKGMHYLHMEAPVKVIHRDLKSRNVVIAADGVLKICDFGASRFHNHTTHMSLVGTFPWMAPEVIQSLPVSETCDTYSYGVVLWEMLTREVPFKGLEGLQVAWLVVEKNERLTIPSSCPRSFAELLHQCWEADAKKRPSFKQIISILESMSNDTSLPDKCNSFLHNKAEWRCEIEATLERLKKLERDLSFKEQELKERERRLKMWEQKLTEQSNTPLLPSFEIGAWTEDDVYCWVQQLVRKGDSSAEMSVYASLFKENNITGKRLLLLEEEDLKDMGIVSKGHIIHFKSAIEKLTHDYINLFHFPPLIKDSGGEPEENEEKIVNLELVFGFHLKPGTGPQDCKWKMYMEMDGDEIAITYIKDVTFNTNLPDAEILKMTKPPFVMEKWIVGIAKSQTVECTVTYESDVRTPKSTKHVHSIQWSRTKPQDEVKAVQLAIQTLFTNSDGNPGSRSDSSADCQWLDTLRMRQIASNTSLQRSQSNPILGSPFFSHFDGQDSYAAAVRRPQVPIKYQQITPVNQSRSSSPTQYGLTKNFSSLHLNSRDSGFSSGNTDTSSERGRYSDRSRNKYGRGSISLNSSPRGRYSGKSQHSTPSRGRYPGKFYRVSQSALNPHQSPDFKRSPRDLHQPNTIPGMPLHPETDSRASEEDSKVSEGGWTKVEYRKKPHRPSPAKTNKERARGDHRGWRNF
How it was run: as §1

EPHA3 = EPHA3 (Homo sapiens, UniProt P29320); details: EPHA3, 1 µM; read-out: residual enzyme activity
How it was run: as §1

C-SRC = C-SRC (Homo sapiens, UniProt P12931); details: read-out: residual enzyme activity
How it was run: as §1

DCAMKL1 = DCAMKL1 (Homo sapiens, UniProt O15075); details: DCAMKL1, 1 µM; read-out: residual enzyme activity
How it was run: as §1

RSK3 = RSK3 (Homo sapiens, UniProt Q15349); details: RSK3, 1 µM; read-out: residual enzyme activity
How it was run: as §1

PIM2 = PIM2 (Homo sapiens, UniProt Q9P1W9); details: PIM2, 1 µM; read-out: residual enzyme activity
How it was run: as §1

RSK4 = RSK4 (Homo sapiens, UniProt Q9UK32); details: RSK4, 1 µM; read-out: residual enzyme activity
How it was run: as §1

SGK1 = SGK1 (Homo sapiens, UniProt O00141); details: SGK1, 1 µM; read-out: residual enzyme activity
Chain of SGK1 (O00141 whole entry, species assumed): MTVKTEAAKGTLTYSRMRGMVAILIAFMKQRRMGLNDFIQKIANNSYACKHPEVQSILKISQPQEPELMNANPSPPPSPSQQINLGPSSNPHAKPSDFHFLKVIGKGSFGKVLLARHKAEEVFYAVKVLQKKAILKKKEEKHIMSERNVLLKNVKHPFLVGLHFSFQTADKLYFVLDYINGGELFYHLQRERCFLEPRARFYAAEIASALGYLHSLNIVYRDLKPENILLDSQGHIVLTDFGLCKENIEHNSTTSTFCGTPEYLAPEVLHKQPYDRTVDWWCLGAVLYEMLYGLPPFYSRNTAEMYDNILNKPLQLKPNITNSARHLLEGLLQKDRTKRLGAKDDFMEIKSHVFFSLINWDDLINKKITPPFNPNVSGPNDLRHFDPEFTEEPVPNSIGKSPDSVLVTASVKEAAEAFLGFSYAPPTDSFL
How it was run: as §1

SIK1 = SIK1 (Homo sapiens, UniProt P57059); details: SIK1, 1 µM; read-out: residual enzyme activity
Chain of SIK1 (P57059 whole entry, species assumed): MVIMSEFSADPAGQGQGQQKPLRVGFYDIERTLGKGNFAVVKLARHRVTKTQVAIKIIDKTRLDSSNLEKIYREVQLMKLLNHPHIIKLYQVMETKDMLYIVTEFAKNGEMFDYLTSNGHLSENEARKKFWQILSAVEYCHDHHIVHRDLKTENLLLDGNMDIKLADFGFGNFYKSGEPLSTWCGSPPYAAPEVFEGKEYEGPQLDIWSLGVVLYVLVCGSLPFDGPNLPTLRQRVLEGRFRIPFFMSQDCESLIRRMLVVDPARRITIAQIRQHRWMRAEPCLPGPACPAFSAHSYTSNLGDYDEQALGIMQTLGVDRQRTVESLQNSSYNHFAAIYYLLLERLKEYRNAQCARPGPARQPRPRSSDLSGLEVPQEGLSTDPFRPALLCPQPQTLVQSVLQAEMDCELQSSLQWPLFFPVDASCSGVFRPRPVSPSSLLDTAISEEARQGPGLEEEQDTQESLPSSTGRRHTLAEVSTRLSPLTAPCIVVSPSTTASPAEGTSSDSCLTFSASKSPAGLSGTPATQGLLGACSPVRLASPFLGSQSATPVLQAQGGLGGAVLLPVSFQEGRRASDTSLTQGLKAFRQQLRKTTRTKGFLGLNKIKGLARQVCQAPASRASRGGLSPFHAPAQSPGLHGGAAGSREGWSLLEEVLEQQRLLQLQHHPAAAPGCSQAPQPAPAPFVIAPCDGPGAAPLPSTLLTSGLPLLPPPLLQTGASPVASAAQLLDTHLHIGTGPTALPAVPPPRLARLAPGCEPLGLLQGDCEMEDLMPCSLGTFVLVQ
How it was run: as §1

MST3/STK24 = MST3/STK24 (Homo sapiens, UniProt Q9Y6E0); details: MST3/STK24, 1 µM; read-out: residual enzyme activity
How it was run: as §1

LKB1 = LKB1 (Homo sapiens, UniProt Q15831); details: LKB1, 1 µM; read-out: residual enzyme activity
How it was run: as §1

GRK5 = GRK5 (Homo sapiens, UniProt P34947); details: GRK5, 1 µM; read-out: residual enzyme activity
How it was run: as §1

FLT4/VEGFR3 = FLT4/VEGFR3 (Homo sapiens, UniProt P35916); details: FLT4/VEGFR3, 1 µM; read-out: residual enzyme activity
How it was run: as §1

TIE2/TEK = TIE2/TEK (Homo sapiens, UniProt Q02763); details: read-out: residual enzyme activity
Chain of TIE2/TEK (Q02763 23-1124): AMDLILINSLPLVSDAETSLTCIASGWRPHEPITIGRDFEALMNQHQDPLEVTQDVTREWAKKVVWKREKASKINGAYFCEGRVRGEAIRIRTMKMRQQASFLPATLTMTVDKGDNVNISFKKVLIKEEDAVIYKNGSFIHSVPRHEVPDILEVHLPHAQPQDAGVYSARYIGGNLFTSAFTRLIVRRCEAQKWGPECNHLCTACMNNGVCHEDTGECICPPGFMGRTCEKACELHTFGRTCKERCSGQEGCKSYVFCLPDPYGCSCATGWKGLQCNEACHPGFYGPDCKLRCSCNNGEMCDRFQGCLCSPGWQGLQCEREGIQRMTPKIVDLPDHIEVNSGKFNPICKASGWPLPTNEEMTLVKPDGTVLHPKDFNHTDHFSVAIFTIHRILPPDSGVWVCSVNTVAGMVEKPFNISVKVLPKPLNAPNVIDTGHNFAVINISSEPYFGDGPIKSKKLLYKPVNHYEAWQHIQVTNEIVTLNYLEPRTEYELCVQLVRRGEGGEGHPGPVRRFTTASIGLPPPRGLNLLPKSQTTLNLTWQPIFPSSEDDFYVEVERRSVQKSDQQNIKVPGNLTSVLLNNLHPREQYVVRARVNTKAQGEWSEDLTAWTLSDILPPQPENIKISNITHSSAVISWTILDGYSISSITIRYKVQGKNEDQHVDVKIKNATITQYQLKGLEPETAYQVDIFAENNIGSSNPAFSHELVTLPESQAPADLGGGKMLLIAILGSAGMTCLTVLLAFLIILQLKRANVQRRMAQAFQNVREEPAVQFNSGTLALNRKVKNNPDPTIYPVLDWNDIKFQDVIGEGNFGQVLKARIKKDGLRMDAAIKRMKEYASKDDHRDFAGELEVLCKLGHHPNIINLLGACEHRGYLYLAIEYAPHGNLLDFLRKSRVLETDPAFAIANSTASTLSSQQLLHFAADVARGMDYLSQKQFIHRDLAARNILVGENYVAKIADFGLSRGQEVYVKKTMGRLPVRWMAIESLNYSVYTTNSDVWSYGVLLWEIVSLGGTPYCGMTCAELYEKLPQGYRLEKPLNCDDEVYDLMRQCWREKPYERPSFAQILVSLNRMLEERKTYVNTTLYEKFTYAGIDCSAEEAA
How it was run: as §1

CAMK1D = CAMK1D (Homo sapiens, UniProt Q8IU85); details: read-out: residual enzyme activity
How it was run: as §1

STK33 = STK33 (Homo sapiens, UniProt Q9BYT3); details: STK33, 1 µM; read-out: residual enzyme activity
How it was run: as §1

COT1/MAP3K8 = COT1/MAP3K8 (Homo sapiens, UniProt P41279); details: COT1/MAP3K8, 1 µM; read-out: residual enzyme activity
Chain of COT1/MAP3K8 (P41279 whole entry): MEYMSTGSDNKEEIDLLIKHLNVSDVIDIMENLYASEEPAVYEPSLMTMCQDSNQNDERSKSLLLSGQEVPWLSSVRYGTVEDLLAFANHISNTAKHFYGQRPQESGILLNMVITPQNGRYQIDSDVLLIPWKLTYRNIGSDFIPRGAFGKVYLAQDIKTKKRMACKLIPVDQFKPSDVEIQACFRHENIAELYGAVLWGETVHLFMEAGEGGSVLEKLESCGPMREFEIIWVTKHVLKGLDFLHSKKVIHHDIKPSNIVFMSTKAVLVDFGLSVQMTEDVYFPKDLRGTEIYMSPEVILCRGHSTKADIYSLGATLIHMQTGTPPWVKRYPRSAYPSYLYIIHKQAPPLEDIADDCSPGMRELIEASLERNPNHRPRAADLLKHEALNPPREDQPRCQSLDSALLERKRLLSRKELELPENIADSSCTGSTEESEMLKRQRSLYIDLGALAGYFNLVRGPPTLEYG
How it was run: as §1

BMX/ETK = BMX/ETK (Homo sapiens, UniProt P51813); details: read-out: residual enzyme activity
How it was run: as §1

MRCKA/CDC42BPA = MRCKA/CDC42BPA (Homo sapiens, UniProt Q5VT25); details: read-out: residual enzyme activity
How it was run: as §1

PHKG2 = PHKG2 (Homo sapiens, UniProt P15735); details: PHKg2, 1 µM; read-out: residual enzyme activity
Chain of PHKG2 (P15735 whole entry, species assumed): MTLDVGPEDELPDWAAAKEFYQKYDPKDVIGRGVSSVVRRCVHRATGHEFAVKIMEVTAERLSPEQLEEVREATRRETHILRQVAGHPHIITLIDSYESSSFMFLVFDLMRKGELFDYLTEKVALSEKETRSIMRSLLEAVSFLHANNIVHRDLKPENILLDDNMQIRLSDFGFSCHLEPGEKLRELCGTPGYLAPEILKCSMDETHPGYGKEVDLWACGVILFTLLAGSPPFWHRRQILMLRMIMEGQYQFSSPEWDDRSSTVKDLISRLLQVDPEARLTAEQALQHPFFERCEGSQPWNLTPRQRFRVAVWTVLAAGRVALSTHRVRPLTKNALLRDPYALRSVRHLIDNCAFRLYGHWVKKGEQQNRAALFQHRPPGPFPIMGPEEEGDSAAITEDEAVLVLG
How it was run: as §1

ALK2/ACVR1 = ALK2/ACVR1 (Homo sapiens, UniProt Q04771); details: ALK2/ACVR1, 1 µM; read-out: residual enzyme activity
Chain of ALK2/ACVR1 (Q04771 21-509): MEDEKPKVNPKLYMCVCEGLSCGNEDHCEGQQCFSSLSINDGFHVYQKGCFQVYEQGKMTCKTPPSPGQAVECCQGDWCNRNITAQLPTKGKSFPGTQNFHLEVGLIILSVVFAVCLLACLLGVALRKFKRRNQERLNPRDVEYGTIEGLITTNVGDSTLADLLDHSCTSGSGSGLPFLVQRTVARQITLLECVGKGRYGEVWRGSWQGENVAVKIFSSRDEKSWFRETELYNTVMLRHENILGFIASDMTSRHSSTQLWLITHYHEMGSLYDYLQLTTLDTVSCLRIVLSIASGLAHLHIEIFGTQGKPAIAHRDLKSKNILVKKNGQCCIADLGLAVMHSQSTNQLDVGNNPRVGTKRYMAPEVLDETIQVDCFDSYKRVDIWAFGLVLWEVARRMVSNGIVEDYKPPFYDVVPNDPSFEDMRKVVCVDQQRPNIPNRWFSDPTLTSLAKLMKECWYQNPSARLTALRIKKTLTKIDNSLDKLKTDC
How it was run: as §1

MST2/STK3 = MST2/STK3 (Homo sapiens, UniProt Q13188); details: MST2/STK3, 1 µM; read-out: residual enzyme activity
How it was run: as §1

LOK/STK10 = LOK/STK10 (Homo sapiens, UniProt O94804); details: LOK/STK10, 1 µM; read-out: residual enzyme activity
How it was run: as §1

KSR1 = KSR1 (Homo sapiens, UniProt Q8IVT5); details: KSR1, 1 µM; read-out: residual enzyme activity
How it was run: as §1

NEK1 = NEK1 (Homo sapiens, UniProt Q96PY6); details: NEK1, 1 µM; read-out: residual enzyme activity
How it was run: as §1

ROCK1 = ROCK1 (Homo sapiens, UniProt Q13464); details: ROCK1, 1 µM; read-out: residual enzyme activity
How it was run: as §1

TESK1 = TESK1 (Homo sapiens, UniProt Q15569); details: TESK1, 1 µM; read-out: residual enzyme activity
How it was run: as §1

IKKE/IKBKE = IKKE/IKBKE (Homo sapiens, UniProt Q14164); details: read-out: residual enzyme activity
How it was run: as §1

PAK3 = PAK3 (Homo sapiens, UniProt O75914); details: PAK3, 1 µM; read-out: residual enzyme activity
Chain of PAK3 (O75914 whole entry, species assumed): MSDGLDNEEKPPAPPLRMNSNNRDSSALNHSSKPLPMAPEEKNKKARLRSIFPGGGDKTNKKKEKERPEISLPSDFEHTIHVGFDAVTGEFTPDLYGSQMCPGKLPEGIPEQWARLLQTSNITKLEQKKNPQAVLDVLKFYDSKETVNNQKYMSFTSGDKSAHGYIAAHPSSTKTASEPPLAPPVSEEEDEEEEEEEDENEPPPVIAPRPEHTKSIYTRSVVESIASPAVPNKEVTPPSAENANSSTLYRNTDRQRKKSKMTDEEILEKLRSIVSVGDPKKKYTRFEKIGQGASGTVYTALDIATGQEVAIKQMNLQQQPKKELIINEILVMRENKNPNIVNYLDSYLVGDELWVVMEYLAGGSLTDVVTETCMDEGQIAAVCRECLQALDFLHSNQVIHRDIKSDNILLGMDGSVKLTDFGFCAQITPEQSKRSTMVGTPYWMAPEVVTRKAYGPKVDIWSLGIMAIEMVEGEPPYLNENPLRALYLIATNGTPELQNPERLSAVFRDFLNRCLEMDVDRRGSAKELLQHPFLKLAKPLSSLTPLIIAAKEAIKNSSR
How it was run: as §1

CDK1/CYCLIN E = CDK1/CYCLIN E (Homo sapiens, UniProt P06493); details: read-out: residual enzyme activity
How it was run: as §1

Row | SMILES | remaining activity at 1 µM (ULK2) | remaining activity at 1 µM (EPHB3) | remaining activity at 1 µM (EPHA1) | remaining activity at 1 µM (ZAK/MLTK) | remaining activity at 1 µM (EPHA3) | remaining activity at 1 µM (DCAMKL1) | remaining activity at 1 µM (RSK3) | remaining activity at 1 µM (PIM2) | remaining activity at 1 µM (RSK4) | remaining activity at 1 µM (SGK1) | remaining activity at 1 µM (SIK1) | remaining activity at 1 µM (MST3/STK24) | remaining activity at 1 µM (LKB1) | remaining activity at 1 µM (GRK5) | remaining activity at 1 µM (FLT4/VEGFR3) | remaining activity at 1 µM (TIE2/TEK) | remaining activity at 1 µM (STK33) | remaining activity at 1 µM (COT1/MAP3K8) | remaining activity at 1 µM (BMX/ETK) | remaining activity at 1 µM (MRCKA/CDC42BPA) | further results
1 | Cc1cn(-c2cc(C(=O)Nc3ccc(C)c(N4Cc5cnc(NC6CC6)nc5C5(CC5)C4=O)c3)cc(C(F)(F)F)c2)cn1 [Compound 8, N-(3-(2'-(cyclopropylamino)-7'-oxo-5'H-spiro[cyclopropane-1,8'-pyrido[4,3-d]pyrimidine]-6'(7'H)-yl)-4-methylphenyl)-3-(4-methyl-1H-imidazol-1-yl)-5-(trifluoromethyl)benzamide] | > 40% | ≤ 40% | ≤ 40% | ≤ 40% | ≤ 40% | > 40% | > 40% | > 40% | > 40% | > 40% | ≤ 40% | > 40% | > 40% | > 40% | ≤ 40% | ≤ 40% | > 40% | > 40% | ≤ 40% | > 40% | remaining activity at 1 µM (C-SRC; C-SRC): ≤ 40%; remaining activity at 1 µM (CAMK1D; CAMK1D): > 40%; remaining activity at 1 µM (PHKG2): > 40%; remaining activity at 1 µM (ALK2/ACVR1): > 40%; remaining activity at 1 µM (MST2/STK3): > 40%; remaining activity at 1 µM (LOK/STK10): ≤ 40%; remaining activity at 1 µM (KSR1): > 40%; remaining activity at 1 µM (NEK1): > 40%; remaining activity at 1 µM (ROCK1): > 40%; remaining activity at 1 µM (TESK1): ≤ 40%; remaining activity at 1 µM (IKKE/IKBKE): > 40%; remaining activity at 1 µM (PAK3): > 40%; remaining activity at 1 µM (CDK1/CYCLIN E): > 40%
2 | Cc1ccc(Nc2ncc3c(n2)C2(CC2)C(=O)N(c2cc(NC(=O)c4cccc(C(F)(F)F)c4)ccc2C)C3)cn1 [Compound 51, N-(4-methyl-3-(2'-((6-methylpyridin-3-yl)amino)-7'-oxo-5'H-spiro[cyclopropane-1,8'-pyrido[4,3-d]pyrimidine]-6'(7'H)-yl)phenyl)-3-(trifluoromethyl)benzamide] | > 40% | ≤ 40% | ≤ 40% | ≤ 40% | ≤ 40% | > 40% | > 40% | > 40% | > 40% | > 40% | ≤ 40% | > 40% | > 40% | > 40% | ≤ 40% | ≤ 40% | > 40% | > 40% | ≤ 40% | > 40% | remaining activity at 1 µM (C-SRC; c-Src): ≤ 40%; remaining activity at 1 µM (CAMK1D; CAMK1d): > 40%; remaining activity at 1 µM (PHKG2): > 40%; remaining activity at 1 µM (ALK2/ACVR1): > 40%; remaining activity at 1 µM (MST2/STK3): > 40%; remaining activity at 1 µM (LOK/STK10): ≤ 40%; remaining activity at 1 µM (KSR1): > 40%; remaining activity at 1 µM (NEK1): > 40%; remaining activity at 1 µM (ROCK1): > 40%; remaining activity at 1 µM (TESK1): ≤ 40%; remaining activity at 1 µM (IKKE/IKBKE): > 40%; remaining activity at 1 µM (PAK3): > 40%; remaining activity at 1 µM (CDK1/CYCLIN E): > 40%
